In ChEMBL document CHEMBL1143089, “Structure-based design and subsequent optimization of 2-tolyl-(1,2,3-triazol-1-yl-4-carboxamide) inhibitors of p38 MAP kinase” (Bioorg Med Chem Lett, 2008):
pIC50, pKd: −log10 of the molar value. Converted amounts (≈) assume the structure as drawn. Values belong to the compound of their own block, whether it stands above or below them. The source made the active and inactive calls. No cut-off for these calls is given here.

What was measured:
THP-1 = assay: Inhibition of LPS-stimulated TNFalpha production in human THP1 cells; format: functional, cell-based
Blood = assay: Inhibition of LPS-stimulated TNFalpha production in human whole blood; format: functional, tissue-based
[1] = Binding affinity to mitogen-activated protein kinase p38 by thermal denaturation assay
[2] = Solubility at pH 7.4; format: physicochemical; settings: buffer
Homo sapiens = organism: Homo sapiens; assay: Protein binding in human plasma; settings: read-out: PPB (converted)
[3] = Apparent permeability across human Caco-2 cells; format: ADME, cell-based
[4] = Binding affinity to mitogen-activated protein kinase p38
[5] = biological target: Tyrosine-protein kinase SYK (Homo sapiens) (UniProt P43405); assay: Activity at Syk at 10 uM
[6] = Inhibition of JNK2a
[7] = Activity at PKA at 3 uM
[8] = biological target: Tyrosine-protein kinase JAK3 (Homo sapiens) (UniProt P52333); assay: Activity at JAK3 at 10 uM
[9] = biological target: Glycogen synthase kinase-3 beta (Homo sapiens) (UniProt P49841); assay: Activity at GSK3-beta at 3 uM
[10] = biological target: Tyrosine-protein kinase BTK (Homo sapiens) (UniProt Q06187); assay: Activity at Btk at 10 uM
[11] = biological target: Hepatocyte growth factor receptor (Homo sapiens) (UniProt P08581); assay: Activity at HGFR at 10 uM
[12] = biological target: Mitogen-activated protein kinase 13 (Homo sapiens) (UniProt O15264); assay: Activity at MAPK p38delta at 3 uM
[13] = biological target: Mitogen-activated protein kinase 14 (Homo sapiens) (UniProt Q16539); assay: Activity at MAPK p38-alpha at 3 uM
[14] = biological target: Serine/threonine-protein kinase Nek6 (Homo sapiens) (UniProt Q9HC98); assay: Activity at NEK6 at 3 uM
[15] = biological target: Mitogen-activated protein kinase 1 (Homo sapiens) (UniProt P28482); assay: Activity at ERK2 at 3 uM
[16] = biological target: Dual specificity tyrosine-phosphorylation-regulated kinase 1A (Homo sapiens) (UniProt Q13627); assay: Activity at DYRK1A at 3 uM
[17] = biological target: Ephrin type-A receptor 2 (Homo sapiens) (UniProt P29317); assay: Activity at Eck at 10 uM
[18] = biological target: Vascular endothelial growth factor receptor 1 (Homo sapiens) (UniProt P17948); assay: Activity at VEGFR1 at 10 uM
[19] = biological target: Insulin-like growth factor 1 receptor (Homo sapiens) (UniProt P08069); assay: Activity at IGF1R at 10 uM
[20] = biological target: Serine/threonine-protein kinase Sgk1 (Homo sapiens) (UniProt O00141); assay: Activity at SGK at 3 uM
[21] = biological target: Insulin receptor (Homo sapiens) (UniProt P06213); assay: Activity at IR at 10 uM
[22] = biological target: Ephrin type-A receptor 3 (Homo sapiens) (UniProt P29320); assay: Activity at Hek at 10 uM; settings: HEK293
[23] = biological target: MAP kinase-activated protein kinase 2 (Homo sapiens) (UniProt P49137); assay: Activity at MAPKAP-K2 at 3 uM
[24] = Activity at PKBdeltaPH at 3 uM
[25] = biological target: Tyrosine-protein kinase ITK/TSK (Homo sapiens) (UniProt Q08881); assay: Activity at Itk at 10 uM
[26] = biological target: Tyrosine-protein kinase Lyn (Homo sapiens) (UniProt P07948); assay: Activity at Lyn at 10 uM
[27] = Activity at MKK1 at 3 uM
[28] = biological target: Cyclin-dependent kinase 2/cyclin A (Homo sapiens) (UniProt P24941+P20248+P78396); assay: Activity at CDK2/cyclin A at 3 uM; format: protein-complex assay
[29] = biological target: 3-phosphoinositide-dependent protein kinase 1 (Homo sapiens) (UniProt O15530); assay: Activity at PDK1 at 3 uM
[30] = biological target: Protein kinase C alpha type (Homo sapiens) (UniProt P17252); assay: Activity at PKCalpha at 3 uM
[31] = Activity at PP2A at 3 uM
[32] = biological target: Tyrosine-protein kinase TXK (Homo sapiens) (UniProt P42681); assay: Activity at TXK at 10 uM
[33] = biological target: Casein kinase I isoform alpha (Homo sapiens) (UniProt P48729); assay: Activity at CK1 at 3 uM
[34] = biological target: Mitogen-activated protein kinase 8 (Homo sapiens) (UniProt P45983); assay: Activity at JNK1 at 3 uM
[35] = biological target: MAP kinase-activated protein kinase 5 (Homo sapiens) (UniProt Q8IW41); assay: Activity at PRAK at 3 uM
[36] = Activity at AMPK at 3 uM
[37] = biological target: Epidermal growth factor receptor (Homo sapiens) (UniProt P00533); assay: Activity at EGFR at 10 uM
[38] = biological target: Rho-associated protein kinase 2 (Homo sapiens) (UniProt O75116); assay: Activity at ROCK2 at 3 uM
[39] = biological target: Casein kinase II subunit alpha (Homo sapiens) (UniProt P68400); assay: Activity at CK2 at 3 uM
[40] = biological target: Ribosomal protein S6 kinase alpha-1 (Homo sapiens) (UniProt Q15418); assay: Activity at MAPKAP-K1a at 3 uM
[41] = biological target: Ribosomal protein S6 kinase alpha-5 (Homo sapiens) (UniProt O75582); assay: Activity at MSK1 at 3 uM
[42] = biological target: Fibroblast growth factor receptor 3 (Homo sapiens) (UniProt P22607); assay: Activity at FGFR3 at 10 uM
[43] = biological target: Serine/threonine-protein kinase Chk1 (Homo sapiens) (UniProt O14757); assay: Activity at CHK1 at 3 uM
[44] = biological target: Ribosomal protein S6 kinase beta-1 (Homo sapiens) (UniProt P23443); assay: Activity at S6K1 at 3 uM

Sequence of Mitogen-activated protein kinase 8 (Homo sapiens) (P45983 whole entry): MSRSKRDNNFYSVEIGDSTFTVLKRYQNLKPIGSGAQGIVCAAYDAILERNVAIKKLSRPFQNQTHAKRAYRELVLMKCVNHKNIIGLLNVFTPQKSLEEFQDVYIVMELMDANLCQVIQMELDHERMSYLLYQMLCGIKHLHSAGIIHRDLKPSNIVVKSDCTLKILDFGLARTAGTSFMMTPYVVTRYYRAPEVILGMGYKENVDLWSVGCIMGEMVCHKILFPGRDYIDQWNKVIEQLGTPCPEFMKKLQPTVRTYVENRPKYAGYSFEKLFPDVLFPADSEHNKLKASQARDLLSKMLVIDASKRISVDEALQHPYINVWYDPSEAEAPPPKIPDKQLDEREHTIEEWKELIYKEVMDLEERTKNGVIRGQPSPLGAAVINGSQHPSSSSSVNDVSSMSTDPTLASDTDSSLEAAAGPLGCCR
Sequence of Tyrosine-protein kinase TXK (Homo sapiens) (P42681 whole entry, canonical isoform): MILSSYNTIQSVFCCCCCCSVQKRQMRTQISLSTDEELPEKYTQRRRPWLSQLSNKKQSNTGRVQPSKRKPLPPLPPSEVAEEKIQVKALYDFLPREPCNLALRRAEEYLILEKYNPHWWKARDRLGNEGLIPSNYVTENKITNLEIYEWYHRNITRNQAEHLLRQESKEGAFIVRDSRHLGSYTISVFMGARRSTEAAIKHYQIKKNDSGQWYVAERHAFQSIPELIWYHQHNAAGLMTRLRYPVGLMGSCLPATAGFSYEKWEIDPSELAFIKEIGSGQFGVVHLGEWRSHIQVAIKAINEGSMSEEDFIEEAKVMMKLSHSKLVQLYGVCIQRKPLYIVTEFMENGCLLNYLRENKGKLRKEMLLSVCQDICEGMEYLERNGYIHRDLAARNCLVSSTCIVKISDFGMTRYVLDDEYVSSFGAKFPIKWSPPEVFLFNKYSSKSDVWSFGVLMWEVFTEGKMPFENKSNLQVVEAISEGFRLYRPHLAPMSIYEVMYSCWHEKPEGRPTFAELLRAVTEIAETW
Sequence of Tyrosine-protein kinase ITK/TSK (Homo sapiens) (Q08881 whole entry): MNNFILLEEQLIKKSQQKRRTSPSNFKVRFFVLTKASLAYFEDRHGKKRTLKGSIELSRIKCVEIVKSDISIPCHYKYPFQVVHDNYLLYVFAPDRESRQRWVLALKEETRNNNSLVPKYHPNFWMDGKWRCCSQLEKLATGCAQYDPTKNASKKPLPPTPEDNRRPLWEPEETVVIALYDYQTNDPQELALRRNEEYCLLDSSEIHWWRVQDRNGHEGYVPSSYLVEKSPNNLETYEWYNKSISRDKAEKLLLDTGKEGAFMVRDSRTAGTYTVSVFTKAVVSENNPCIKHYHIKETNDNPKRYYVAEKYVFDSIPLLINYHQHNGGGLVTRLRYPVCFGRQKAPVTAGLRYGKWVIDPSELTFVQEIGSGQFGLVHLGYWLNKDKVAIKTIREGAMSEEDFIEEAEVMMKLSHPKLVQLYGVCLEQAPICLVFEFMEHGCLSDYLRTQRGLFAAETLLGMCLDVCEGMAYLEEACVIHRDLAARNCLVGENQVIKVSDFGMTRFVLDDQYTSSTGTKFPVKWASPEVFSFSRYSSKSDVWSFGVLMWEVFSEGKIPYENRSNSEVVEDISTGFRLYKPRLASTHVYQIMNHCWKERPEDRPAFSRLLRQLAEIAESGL
Sequence of Epidermal growth factor receptor (Homo sapiens) (P00533 whole entry): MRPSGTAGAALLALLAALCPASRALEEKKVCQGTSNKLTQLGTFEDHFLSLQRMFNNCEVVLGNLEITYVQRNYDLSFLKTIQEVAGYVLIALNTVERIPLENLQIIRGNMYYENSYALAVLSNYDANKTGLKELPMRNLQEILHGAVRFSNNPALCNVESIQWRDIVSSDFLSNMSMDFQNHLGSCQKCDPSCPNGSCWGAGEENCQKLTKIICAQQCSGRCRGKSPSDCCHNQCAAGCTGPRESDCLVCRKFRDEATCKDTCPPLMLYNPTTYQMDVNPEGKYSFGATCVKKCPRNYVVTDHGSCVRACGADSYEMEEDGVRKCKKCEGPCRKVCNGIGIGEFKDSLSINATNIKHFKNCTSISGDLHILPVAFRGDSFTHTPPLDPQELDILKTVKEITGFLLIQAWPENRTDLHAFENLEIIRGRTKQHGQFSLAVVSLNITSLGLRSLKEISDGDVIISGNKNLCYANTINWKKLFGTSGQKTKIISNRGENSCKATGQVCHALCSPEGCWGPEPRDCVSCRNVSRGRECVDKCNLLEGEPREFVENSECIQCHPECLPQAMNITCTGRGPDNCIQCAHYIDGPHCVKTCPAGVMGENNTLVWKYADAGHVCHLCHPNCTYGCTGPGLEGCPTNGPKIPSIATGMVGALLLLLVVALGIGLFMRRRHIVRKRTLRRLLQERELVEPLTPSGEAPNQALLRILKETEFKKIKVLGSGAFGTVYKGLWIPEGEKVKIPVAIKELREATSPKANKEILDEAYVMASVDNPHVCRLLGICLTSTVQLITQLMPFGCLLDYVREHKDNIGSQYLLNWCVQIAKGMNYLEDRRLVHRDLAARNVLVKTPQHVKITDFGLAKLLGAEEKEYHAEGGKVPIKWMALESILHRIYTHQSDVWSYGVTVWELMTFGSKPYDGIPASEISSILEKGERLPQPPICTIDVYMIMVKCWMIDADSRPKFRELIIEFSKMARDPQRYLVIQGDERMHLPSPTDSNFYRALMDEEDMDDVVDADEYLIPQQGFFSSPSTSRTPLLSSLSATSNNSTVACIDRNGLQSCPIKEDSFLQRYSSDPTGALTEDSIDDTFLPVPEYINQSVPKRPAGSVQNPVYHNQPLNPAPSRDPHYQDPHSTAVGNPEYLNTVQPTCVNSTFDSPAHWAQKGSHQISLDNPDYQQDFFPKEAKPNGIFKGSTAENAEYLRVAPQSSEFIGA
Sequence of Tyrosine-protein kinase Lyn (Homo sapiens) (P07948 2-512 limits assumed): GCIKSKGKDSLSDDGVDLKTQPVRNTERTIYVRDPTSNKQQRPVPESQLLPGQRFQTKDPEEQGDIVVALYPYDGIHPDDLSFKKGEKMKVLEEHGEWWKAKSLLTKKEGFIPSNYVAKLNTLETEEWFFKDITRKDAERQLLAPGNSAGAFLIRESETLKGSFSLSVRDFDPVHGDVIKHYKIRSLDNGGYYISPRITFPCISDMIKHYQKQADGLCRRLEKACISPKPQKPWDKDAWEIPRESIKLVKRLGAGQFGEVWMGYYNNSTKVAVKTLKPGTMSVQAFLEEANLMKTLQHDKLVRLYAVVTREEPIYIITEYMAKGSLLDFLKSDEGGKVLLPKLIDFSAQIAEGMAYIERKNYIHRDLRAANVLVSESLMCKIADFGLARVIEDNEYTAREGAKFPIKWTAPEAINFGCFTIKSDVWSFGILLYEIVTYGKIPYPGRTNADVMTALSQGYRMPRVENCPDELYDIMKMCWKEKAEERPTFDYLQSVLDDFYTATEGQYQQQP
Sequence of 3-phosphoinositide-dependent protein kinase 1 (Homo sapiens) (O15530 whole entry, looked up): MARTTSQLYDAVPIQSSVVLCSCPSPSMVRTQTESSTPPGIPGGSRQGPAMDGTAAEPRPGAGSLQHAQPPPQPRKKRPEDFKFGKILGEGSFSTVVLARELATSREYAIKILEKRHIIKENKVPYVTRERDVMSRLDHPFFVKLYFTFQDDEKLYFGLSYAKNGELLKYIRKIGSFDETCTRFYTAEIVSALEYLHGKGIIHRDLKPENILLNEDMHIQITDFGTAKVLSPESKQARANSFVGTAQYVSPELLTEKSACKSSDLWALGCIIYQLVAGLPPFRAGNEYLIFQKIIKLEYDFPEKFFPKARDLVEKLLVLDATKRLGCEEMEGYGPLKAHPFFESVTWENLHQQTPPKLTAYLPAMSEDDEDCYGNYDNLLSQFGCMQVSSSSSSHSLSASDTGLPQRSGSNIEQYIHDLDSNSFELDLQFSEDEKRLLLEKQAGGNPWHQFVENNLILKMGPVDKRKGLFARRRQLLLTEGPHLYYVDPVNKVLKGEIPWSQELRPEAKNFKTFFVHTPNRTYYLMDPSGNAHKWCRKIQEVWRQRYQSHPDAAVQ
Sequence of Serine/threonine-protein kinase Nek6 (Homo sapiens) (Q9HC98 whole entry): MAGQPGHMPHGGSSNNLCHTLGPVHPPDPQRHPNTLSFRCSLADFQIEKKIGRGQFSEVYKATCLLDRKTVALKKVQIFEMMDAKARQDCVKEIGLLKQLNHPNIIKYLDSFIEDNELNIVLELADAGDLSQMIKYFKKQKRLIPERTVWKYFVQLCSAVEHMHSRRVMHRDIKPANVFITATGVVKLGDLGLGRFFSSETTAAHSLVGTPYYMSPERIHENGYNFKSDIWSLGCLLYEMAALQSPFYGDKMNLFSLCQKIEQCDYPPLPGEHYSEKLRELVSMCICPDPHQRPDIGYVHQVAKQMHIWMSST
Sequence of Mitogen-activated protein kinase 14 (Homo sapiens) (Q16539 whole entry): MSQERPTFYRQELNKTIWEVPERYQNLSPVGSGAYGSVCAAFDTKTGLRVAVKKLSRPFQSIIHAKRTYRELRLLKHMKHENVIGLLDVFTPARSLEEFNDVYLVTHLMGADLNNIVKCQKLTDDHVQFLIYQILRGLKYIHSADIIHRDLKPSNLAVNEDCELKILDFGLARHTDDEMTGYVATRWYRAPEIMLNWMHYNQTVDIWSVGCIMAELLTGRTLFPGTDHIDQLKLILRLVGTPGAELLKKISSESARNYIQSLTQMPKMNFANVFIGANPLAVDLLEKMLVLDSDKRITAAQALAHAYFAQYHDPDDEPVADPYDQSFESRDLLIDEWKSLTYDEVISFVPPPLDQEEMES
Sequence of Casein kinase I isoform alpha (Homo sapiens) (P48729 2-337 limits assumed): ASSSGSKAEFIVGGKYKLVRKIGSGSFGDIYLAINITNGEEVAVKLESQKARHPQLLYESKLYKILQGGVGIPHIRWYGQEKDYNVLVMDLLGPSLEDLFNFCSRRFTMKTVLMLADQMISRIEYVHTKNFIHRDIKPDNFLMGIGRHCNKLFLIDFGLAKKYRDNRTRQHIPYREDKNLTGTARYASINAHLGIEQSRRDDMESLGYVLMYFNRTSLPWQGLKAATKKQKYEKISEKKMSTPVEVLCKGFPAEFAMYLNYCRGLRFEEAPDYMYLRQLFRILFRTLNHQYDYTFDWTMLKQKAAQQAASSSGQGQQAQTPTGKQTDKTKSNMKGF

Structure (SMILES): COc1c(NC(=O)c2ccc(C)c(N3C=C(C(=O)N[C@@H](C)C(C)(C)C)NN3)c2)cc(C(C)(C)C)cc1NS(C)(=O)=O
pIC50 (THP-1): 7.46
pIC50 (Blood): 5.59
Tm [1]: 60 °C

Structure (SMILES): COc1c(NC(=O)c2ccc(C)c(N3C=C(C(=O)NCC4CCN(C)CC4)NN3)c2)cc(C(C)(C)C)cc1NS(C)(=O)=O
pIC50 (THP-1): 6.70
pIC50 (Blood): 5.35
Tm [1]: 57.5 °C

Structure (SMILES): COc1c(NC(=O)c2ccc(C)c(N3C=C(C(=O)N[C@H](C)C4CCCCC4)NN3)c2)cc(C(C)(C)C)cc1NS(C)(=O)=O
pIC50 (THP-1): 7.80
pIC50 (Blood): 5.55
Tm [1]: 60.8 °C

Structure (SMILES): COc1c(NC(=O)c2ccc(C)c(N3C=C(C(=O)NCC(C)(C)O)NN3)c2)cc(C(C)(C)C)cc1NS(C)(=O)=O
pIC50 (THP-1): 7.74
solubility [2]: 2 µg/mL (≈ 3.48 µM)
fraction unbound (Homo sapiens): 0.34
pIC50 (Blood): 6.68
Papp [3]: 7.4 ×10⁻⁶ cm/s
Tm [1]: 59.9 °C

Structure (SMILES): COc1c(NC(=O)c2ccc(C)c(N3C=C(C(=O)NCC4CCCCC4)NN3)c2)cc(C(C)(C)C)cc1NS(C)(=O)=O
pIC50 (THP-1): 7.85
pIC50 (Blood): 6.59
Tm [1]: 56.2 °C

Structure (SMILES): COc1c(NC(=O)c2ccc(C)c(N3C=C(C(=O)NC(C)(C)C)NN3)c2)cc(C(C)(C)C)cc1NS(C)(=O)=O
pIC50 (THP-1): 7.08
pIC50 (Blood): < 4.82
Tm [1]: 56.8 °C

Structure (SMILES): CCOC(=O)C1=CN(c2cc(C(=O)Nc3cc(C(C)(C)C)cc(NS(C)(=O)=O)c3OC)ccc2C)NN1
pIC50 (THP-1): < 5.30
pKd [4]: 8.10
pIC50 (Blood): 5.05
Tm [1]: 56.2 °C

Structure (SMILES): COc1c(NC(=O)c2ccc(C)c(N3C=C(C(=O)NCc4cccnc4)NN3)c2)cc(C(C)(C)C)cc1NS(C)(=O)=O
pIC50 (THP-1): 7.42
pIC50 (Blood): 6.57
Tm [1]: 57.9 °C

Structure (SMILES): COc1c(NC(=O)c2ccc(C)c(N3C=C(C(=O)NCc4ccncc4)NN3)c2)cc(C(C)(C)C)cc1NS(C)(=O)=O
pIC50 (THP-1): 7.13
pIC50 (Blood): 6.14
Tm [1]: 58.8 °C

Structure (SMILES): COc1c(NC(=O)c2ccc(C)c(N3C=C(C(=O)NCC(C)(C)C)NN3)c2)cc(C(C)(C)C)cc1NS(C)(=O)=O
pIC50 (THP-1): 7.85
solubility [2]: 0.1 µg/mL (≈ 0.175 µM)
fraction unbound (Homo sapiens): 0.08
pIC50 (Blood): 6.59
Tm [1]: 60.5 °C

Structure (SMILES): COc1c(NC(=O)c2ccc(C)c(N3C=C(C(=O)N[C@H](C)c4ccccc4)NN3)c2)cc(C(C)(C)C)cc1NS(C)(=O)=O
pIC50 (THP-1): 7.89
pIC50 (Blood): 6.33
Tm [1]: 64.6 °C

Structure (SMILES): COc1c(NC(=O)c2ccc(C)c(N3C=C(C(=O)N(C)Cc4ccccc4)NN3)c2)cc(C(C)(C)C)cc1NS(C)(=O)=O
pIC50 (THP-1): 7.54
pIC50 (Blood): < 4.82
Tm [1]: 57.8 °C

Structure (SMILES): COc1c(NC(=O)c2ccc(C)c(N3C=C(C(=O)N[C@@H](C)C4CCCCC4)NN3)c2)cc(C(C)(C)C)cc1NS(C)(=O)=O
pIC50 (THP-1): 7.18
pIC50 (Blood): 5.25
Tm [1]: 56.9 °C

The remaining lines, values ahead:

pIC50 (THP-1): 6.96
pIC50 (Blood): 5.55
Tm [1]: 56.6 °C
Structure (SMILES): COc1c(NC(=O)c2ccc(C)c(N3C=C(C(=O)NC4CC4)NN3)c2)cc(C(C)(C)C)cc1NS(C)(=O)=O

pIC50 (THP-1): 7.57
pIC50 (Blood): 5.59
Tm [1]: 60.1 °C
Structure (SMILES): COc1c(NC(=O)c2ccc(C)c(N3C=C(C(=O)N[C@@H](C)c4ccccc4)NN3)c2)cc(C(C)(C)C)cc1NS(C)(=O)=O

pIC50 (THP-1): 7.40
pIC50 (Blood): 6.03
Tm [1]: 59.7 °C
Structure (SMILES): COc1c(NC(=O)c2ccc(C)c(N3C=C(C(=O)NCc4ccccc4)NN3)c2)cc(C(C)(C)C)cc1NS(C)(=O)=O

pIC50 (THP-1): 7.46
pIC50 (Blood): 6.30
Tm [1]: 65.1 °C
Structure (SMILES): COc1c(NC(=O)c2ccc(C)c(N3C=C(C(=O)N[C@H](CN(C)C)c4ccccc4)NN3)c2)cc(C(C)(C)C)cc1NS(C)(=O)=O

pIC50 (THP-1): 7.85
pIC50 (Blood): 6.00
Tm [1]: 61.6 °C
Structure (SMILES): COc1c(NC(=O)c2ccc(C)c(N3C=C(C(=O)N[C@H](C)C(C)(C)C)NN3)c2)cc(C(C)(C)C)cc1NS(C)(=O)=O

pIC50 (THP-1): 6.85
pIC50 (Blood): 6.10
Tm [1]: 56.1 °C
Structure (SMILES): COc1c(NC(=O)c2ccc(C)c(N3C=C(C(=O)NCC(C)(C)N(C)C)NN3)c2)cc(C(C)(C)C)cc1NS(C)(=O)=O

Activity [5]: inactive
pIC50 [6]: 5.96
Activity [7]: inactive
Activity [8]: inactive
Activity [9]: inactive
pIC50 (THP-1): 7.66
Activity [10]: inactive
Activity [11]: inactive
solubility [2]: 13.9 µg/mL (≈ 22.6 µM)
Activity [12]: inactive
fraction unbound (Homo sapiens): 0.34
Activity [13]: inactive
Activity [14]: inactive
pIC50 (Blood): 7.08
Activity [15]: inactive
Activity [16]: inactive
Papp [3]: 13 ×10⁻⁶ cm/s
Activity [17]: inactive
Activity [18]: inactive
Activity [19]: inactive
Activity [20]: inactive
Activity [21]: inactive
Activity [22]: inactive
Activity [23]: inactive
Activity [24]: inactive
Activity [25]: inactive
Activity [26]: inactive
Activity [27]: inactive
Activity [28]: inactive
Activity [29]: inactive
Activity [30]: inactive
Activity [31]: inactive
Activity [32]: inactive
Activity [33]: inactive
Activity [34]: inactive
Activity [35]: inactive
Activity [36]: inactive
Activity [37]: inactive
Activity [38]: inactive
Tm [1]: 57.3 °C
Activity [39]: inactive
Activity [40]: inactive
Activity [41]: inactive
Activity [42]: inactive
Activity [43]: inactive
Activity [44]: inactive
Structure (SMILES): COc1c(NC(=O)c2ccc(C)c(N3C=C(C(=O)NCC(C)(C)CN(C)C)NN3)c2)cc(C(C)(C)C)cc1NS(C)(=O)=O

pIC50 [6]: 8.22
solubility [2]: 1 µg/mL (≈ 1.9 µM)
Papp [3]: 10 ×10⁻⁶ cm/s
Tm [1]: 63.5 °C
Structure (SMILES): Cc1ccc(-n2nc(C(C)(C)C)cc2NC(=O)Nc2ccc(OCCN3CCOCC3)c3ccccc23)cc1 [DORAMAPIMOD]

pIC50 (THP-1): 6.96
pIC50 (Blood): 5.08
Tm [1]: 57.3 °C
Structure (SMILES): CNC(=O)C1=CN(c2cc(C(=O)Nc3cc(C(C)(C)C)cc(NS(C)(=O)=O)c3OC)ccc2C)NN1

pIC50 (THP-1): 7.55
pIC50 (Blood): 6.52
Tm [1]: 57.4 °C
Structure (SMILES): COc1c(NC(=O)c2ccc(C)c(N3C=C(C(=O)NCC4CCCN(C)C4)NN3)c2)cc(C(C)(C)C)cc1NS(C)(=O)=O (centres undefined)
